# Experimental data reported in patent US12084430B2, “Tricyclic urea compounds as JAK2 V617F inhibitors” (Incyte Corporation, priority 2022, dated 2024).
# Read-outs that look alike come from different tables or passages of the source.
# Assays:
# [1] = biological target: T1, pseudo-kinase domain (JH2) of human V617F mutant JAK2 (Homo sapiens, UniProt O60674, F794H/V617F/W659A/W777A); assay: JAK2 LanthaScreen JH2-V617F binding assay; conditions: read-out: JH2 V617F Bind IC50
# T1 construct: pseudo-kinase domain (JH2, amino-acids 536-812 with 3 surface mutations W659A, W777A, F794H); His (C); purchased BPS Bioscience 79498; host or cells: baculovirus expression system
# Method: Example B. JAK2 LanthaScreen JH2-V617F Binding Assay
# JAK2 JH2-V617F binding assay utilizes pseudo-kinase domain (JH2, amino-acids 536-812 with 3 surface mutations W659A, W777A, F794H) of human V617F mutant JAK2 expressed as C-terminal His-Avi-tagged, biotinylated protein in a baculovirus expression system (BPS Bioscience, Catalog #79498). The assay was conducted in black 384-well polystyrene plates in a final reaction volume of 20 μL. JAK2 JH2-V617F (0.26 nM) was incubated with compounds (100 nL serially diluted in DMSO) in the presence of 50 nM Fluorescent JAK2-JH2 Tracer (MedChem Express Catalog #HY-102055) and 0.25 nM Streptavidin-Tb cryptate (Cisbio Part #610SATLB) in assay buffer (50 mM Tris, pH=7.5, 10 mM MgCl2, 0.01% Brij-35, 0.1% BSA, 1 mM EGTA, 5% Glycerol and 5 mM DTT). Non-specific binding was accessed in the presence of 2 mM ATP. After incubation for 1 hour at 25° C., LanthaScreen signals were read on a PHERAstar FS plate reader (BMG LABTECH). Data was analyzed with IDBS XLfit and GraphPad Prism 5.0 software using a four parameter dose response curve to determine IC50 for each compound.
# [2] = test system: FLT3; assay: FLT3 enzymatic assay; type: biochemical
# Method: Example C. FLT3 Enzymatic Assay
# The kinase assays were carried out at room temperature in assay buffer (HEPES 50 mM, pH 7.0, NaN3 0.02%, BSA 0.01%, Orthovanadate 0.1 mM, DTT 1 mM, MgCl2 10 mM) in a final volume of 10 μL. Testing compounds were prepared by serial dilution in DMSO and transferred to the plate wells by ECHO liquid handler (Labcyte) with 0.5% DMSO in the final assay. […]. Reactions were initiated by the addition of 5 μL ATP in assay buffer. The final 10 μL kinase reaction consists of 0.011 nM FLT3, 1 mM ATP, 500 nM TK Substrate-biotin and SEB reagent 62.5 nM in assay buffer. […] The plates were then sealed and centrifuged at 1800 rpm for 2 minutes. After 60 minutes incubation at room temperature, the product activity was determined by measuring the fluorescence at 620 nm and 665 nm on Pherastar microplate reader (BMG Labtech). A ratio is calculated (665/620 nm) for each well. Wells with DMSO only were served as the positive controls and wells containing no ATP were used as negative controls. IC50 determination was performed by fitting the curve of percent control activity versus the log of the compound concentration using the GraphPad Prism 7.0 software.
# [3] = test system: pSTAT5 signaling in SET-2 cells in whole blood; assay: pSTAT5 SET-2 whole blood MSD assay; type: cell-based; conditions: Homo sapiens, pSTAT5, 2 hour, read-out: SET2 WB IC50
# Method: Example F. pSTAT5 SET-2 Whole Blood MSD Assay
# SET-2 cells shipped from ABS, RPMI1640 medium, Fetal Bovine Serum from Gibco, Phospho-STAT5a,b Whole Cell Lysate Kit from Mesoscale, Retronectin (Recombinant Human Fibronectin Fragment) from TaKaRa, 96 well cell culture plate flat bottom from Corning, lysis buffer from Cell Signaling Technology, and sterile PBS from Gibco. Whole Blood from by BioIVT.
# SET-2 cells were cultured in RPMI media with 20% FBS at 37° C. humidified incubator supplied with 5% CO2. On the day of the assay, 40 uL per well of diluted retronectin working solution was added to sterile 96-well clear flat bottom tissue culture plates (1:200 dilution of retronectin in sterile PBS) and incubated at 37 C for 1 hour. After 1 hour, the retronectin working solution was aspirated and SET-2 cells were seeded at 100,000/well in RPMI+20% FBS. Cells were incubated overnight at 37° C. and 5% CO2. The next day, the medium was removed and 40 μL of diluted compounds in serum-free RPMI and whole blood was added to the cells for a 2 hour incubation at 37° C. and 5% CO2. The compound starting concentration is 20 μM and 2.5 fold serial diluted down to 0.21 nM. The whole blood and compound mixture was then aspirated off using the BlueCat plate washer and washed 1× with PBS. Cells were lysed by adding 40 μL of 3× complete lysis buffer and shaken at room temperature for 45-60 minutes (complete lysis buffer consists of Cell Signaling Technology lysis buffer diluted to 3× and supplemented with Mesoscale's protease inhibitor, phosphatase I inhibitor, and phosphatase II inhibitor). The pSTAT5 MSD plates were blocked by adding 150 μL of Blocker A solution per well to the MSD plates and incubated at room temperature with shaking at 400 rpm for one hour or longer. After blocking, plates were washed 3× with 300 μL/well of IX Tris Wash Buffer. After lysis, added 25 μL per well of lysed sample was added to MSD plate and incubated with shaking at 4° C. wrapped in foil overnight. The next day, plates were washed again and 25 μL/well of diluted 1× Detection Antibody Solution, wrapped in foil, and incubated at room temperature with shaking at 400 rpm for 1 hour. Plates were then washed again and lastly, 150 μL/well of 1× Read Buffer T was added to all wells. Plates were analyzed on MSD Discovery within 5 minutes. […] Data analysis was performed in GraphPad Prism using a 4-parameter fit and data was reported as Average±SD.
# [4] = In vivo pharmacokinetics, rat; parameters: species or system Sprague Dawley rats; conditions: male, Sprague Dawley, plasma, oral 3.0 mg/kg
# Method: Example H. In Vivo Pharmacokinetics
# Test compounds were administered to male Sprague Dawley rats or male and female Cynomolgus monkeys intravenously or via oral gavage. For intravenous (IV) dosing, test compounds were dosed at 1 mg/kg using a formulation of 10% dimethylacetamide (DMAC), 10% propylene glycol (PG) in acidified saline via IV bolus for rat or 10 min IV infusion for monkey. For oral (PO) dosing, test compounds were dosed at 3.0 mg/kg using 5% DMAC in 0.5% methylcellulose in citrate buffer (pH˜2.5). Blood samples were collected at predose and various time points up to 24 hours postdose. All blood samples were collected using EDTA as the anticoagulant and centrifuged to obtain plasma samples. The plasma concentrations of test compounds were determined by LC-MS/MS methods. The measured plasma concentrations were used to calculate PK parameters by standard noncompartmental methods using Phoenix® WinNonlin software program (version 8.0, Pharsight Corporation) or similar software. In rats and monkeys, cassette dosing of test compounds were conducted to obtain preliminary PK parameters. In vivo pharmacokinetic experiments with male beagle dogs may be performed under the conditions described above.
# T1 sequence (O60674 536-812 V617F/W659A/W777A/F794H): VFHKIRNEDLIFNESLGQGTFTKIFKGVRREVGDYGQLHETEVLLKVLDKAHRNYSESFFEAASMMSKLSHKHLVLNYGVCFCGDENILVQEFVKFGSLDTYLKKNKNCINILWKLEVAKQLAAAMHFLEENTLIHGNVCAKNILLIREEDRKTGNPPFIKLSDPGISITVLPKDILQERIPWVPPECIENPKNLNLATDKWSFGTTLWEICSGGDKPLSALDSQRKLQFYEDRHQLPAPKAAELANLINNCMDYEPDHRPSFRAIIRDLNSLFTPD
SMILES,IC50 ([1]; Table A) [nM],IC50 ([1]; Table C) [nM],Selectivity FLT3/JH2 V617F [2],IC50 [3] [nM],AUC [4] [µM·h]
"COC(=O)N[C@@H]1CC[C@@H](n2c(=O)n(C)c3cnc4[nH]c(-c5cn(C)nc5OC)c(-c5ccc(F)cc5)c4c32)C1 [Example 1, Methyl ((1R,3R)-3-(8-(4-fluorophenyl)-7-(3-methoxy-1-methyl-1H-pyrazol-4-yl)-3-methyl-2-oxo-3,6-dihydroimidazo[4,5-d]pyrrolo[2,3-b]pyridin-1(2H)-yl)cyclopentyl)carbamate]",≤ 10,≤ 10,**** (selectivity of >1750-fold to ≤5000-fold),2500 to 5000,> 1.5
"COC(=O)N[C@@H]1CC[C@@H](n2c(=O)n(C)c3cnc4[nH]c(-c5cn(C)nc5OC)c(-c5ccccc5)c4c32)C1 [Example 2, Methyl ((1R,3R)-3-(7-(3-methoxy-1-methyl-1H-pyrazol-4-yl)-3-methyl-2-oxo-8-phenyl-3,6-dihydroimidazo[4,5-d]pyrrolo[2,3-b]pyridin-1(2H)-yl)cyclopentyl)carbamate]",≤ 10,≤ 10,**** (selectivity of >1750-fold to ≤5000-fold),2500 to 5000,> 1.5
"COC(=O)N[C@@H]1CC[C@@H](n2c(=O)n(C)c3cnc4[nH]c(-c5cn(C)nc5OC)c(-c5cccc(F)c5)c4c32)C1 [Example 3, Methyl ((1R,3R)-3-(8-(3-fluorophenyl)-7-(3-methoxy-1-methyl-1H-pyrazol-4-yl)-3-methyl-2-oxo-3,6-dihydroimidazo[4,5-d]pyrrolo[2,3-b]pyridin-1(2H)-yl)cyclopentyl)carbamate]",≤ 10,≤ 10,**** (selectivity of >1750-fold to ≤5000-fold),5000 to 7500,> 1.5
"COC(=O)N[C@@H]1CC[C@@H](n2c(=O)n(C)c3cnc4[nH]c(-c5cn(C)nc5OC)c(-c5ccc(OC)c(F)c5)c4c32)C1 [Example 4, Methyl ((1R,3R)-3-(8-(3-fluoro-4-methoxyphenyl)-7-(3-methoxy-1-methyl-1H-pyrazol-4-yl)-3-methyl-2-oxo-3,6-dihydroimidazo[4,5-d]pyrrolo[2,3-b]pyridin-1(2H)-yl)cyclopentyl)carbamate]",≤ 10,≤ 10,***** (selectivity of >5000-fold to ≤12500-fold),≤ 2500,> 1.5
"[2H]C([2H])([2H])n1ncc2cc(-c3c(-c4cn(C)nc4OC)[nH]c4ncc5c(c34)n([C@@H]3CC[C@@H](NC(=O)OC)C3)c(=O)n5C)ccc21 [Example 5, Methyl ((1R,3R)-3-(7-(3-methoxy-1-methyl-1H-pyrazol-4-yl)-3-methyl-8-(1-(methyl-d3)-1H-indazol-5-yl)-2-oxo-3,6-dihydroimidazo[4,5-d]pyrrolo[2,3-b]pyridin-1(2H)-yl)cyclopentyl)carbamate]",≤ 10,≤ 10,***** (selectivity of >5000-fold to ≤12500-fold),≤ 2500,0.5 to 1.5
"[2H]C([2H])([2H])n1cc(-c2[nH]c3ncc4c(c3c2-c2ccc3c(cnn3C([2H])([2H])[2H])c2)n([C@@H]2CC[C@@H](NC(=O)OC)C2)c(=O)n4C([2H])([2H])[2H])c(F)n1 [Example 6, Methyl ((1R,3R)-3-(7-(3-fluoro-1-(methyl-d3)-1H-pyrazol-4-yl)-3-(methyl-d3)-8-(1-(methyl-d3)-1H-indazol-5-yl)-2-oxo-3,6-dihydroimidazo[4,5-d]pyrrolo[2,3-b]pyridin-1(2H)-yl)cyclopentyl)carbamate]",≤ 10,≤ 10,***** (selectivity of >5000-fold to ≤12500-fold),≤ 2500,0.5 to 1.5
